Source: the NIST ThermoML archive (doi:10.1021/je049918m)
Where “and” joins values, the source holds several entries; their conditions need not be identical. Equal entries are not always repeated.

Settings: Liquid, Falling or rolling sphere viscometry

O [water]
Settings | viscosity
255.65 K, 177500 kPa | 2.945 mPa·s
255.65 K, 190300 kPa | 2.955 mPa·s
255.65 K, 196700 kPa | 2.959 mPa·s
255.65 K, 201800 kPa | 2.964 mPa·s
255.65 K, 231800 kPa | 3.003 mPa·s
255.65 K, 257800 kPa | 3.056 mPa·s
255.65 K, 292300 kPa | 3.135 mPa·s
255.65 K, 321100 kPa | 3.217 mPa·s
258.15 K, 159300 kPa | 2.678 mPa·s
258.15 K, 188400 kPa | 2.69 mPa·s
258.15 K, 205200 kPa | 2.708 mPa·s
258.15 K, 209200 kPa | 2.71 mPa·s
258.15 K, 239800 kPa | 2.754 mPa·s
258.15 K, 282600 kPa | 2.834 mPa·s
258.15 K, 309000 kPa | 2.898 mPa·s
258.15 K, 323500 kPa | 2.934 mPa·s
258.15 K, 333200 kPa | 2.957 mPa·s
258.15 K, 354100 kPa | 3.019 mPa·s
258.15 K, 361000 kPa | 3.033 mPa·s
263.15 K, 112000 kPa | 2.258 mPa·s
263.15 K, 112100 kPa | 2.258 mPa·s
263.15 K, 128600 kPa | 2.247 mPa·s
263.15 K, 150800 kPa | 2.244 mPa·s
263.15 K, 180700 kPa | 2.256 mPa·s
263.15 K, 209900 kPa | 2.281 mPa·s
263.15 K, 240100 kPa | 2.315 mPa·s
263.15 K, 270500 kPa | 2.357 mPa·s
263.15 K, 302000 kPa | 2.415 mPa·s
263.15 K, 335400 kPa | 2.481 mPa·s
263.15 K, 386400 kPa | 2.605 mPa·s
268.15 K, 61100 kPa | 1.969 mPa·s
268.15 K, 80800 kPa | 1.942 mPa·s
268.15 K, 98000 kPa | 1.927 mPa·s
268.15 K, 100200 kPa | 1.926 mPa·s
268.15 K, 124200 kPa | 1.914 mPa·s
268.15 K, 151100 kPa | 1.913 mPa·s
268.15 K, 177500 kPa | 1.924 mPa·s
268.15 K, 213300 kPa | 1.949 mPa·s
268.15 K, 245400 kPa | 1.982 mPa·s
268.15 K, 295300 kPa | 2.047 mPa·s
268.15 K, 350800 kPa | 2.138 mPa·s
268.15 K, 376700 kPa | 2.19 mPa·s
268.15 K, 387900 kPa | 2.212 mPa·s
273.15 K, 100 kPa | 1.799 mPa·s and 1.802 mPa·s
273.15 K, 30700 kPa | 1.722 mPa·s
273.15 K, 60400 kPa | 1.678 mPa·s
273.15 K, 90700 kPa | 1.653 mPa·s
273.15 K, 120600 kPa | 1.644 mPa·s
273.15 K, 150300 kPa | 1.649 mPa·s
273.15 K, 180000 kPa | 1.659 mPa·s
273.15 K, 209600 kPa | 1.678 mPa·s
273.15 K, 240300 kPa | 1.704 mPa·s
273.15 K, 270400 kPa | 1.735 mPa·s
273.15 K, 300400 kPa | 1.771 mPa·s
273.15 K, 330300 kPa | 1.81 mPa·s
273.15 K, 359500 kPa | 1.852 mPa·s
273.15 K, 386700 kPa | 1.893 mPa·s
278.15 K, 100 kPa | 1.528 mPa·s
278.15 K, 600 kPa | 1.527 mPa·s
278.15 K, 30700 kPa | 1.481 mPa·s
278.15 K, 60700 kPa | 1.454 mPa·s
278.15 K, 90500 kPa | 1.44 mPa·s
278.15 K, 120300 kPa | 1.439 mPa·s
278.15 K, 150800 kPa | 1.444 mPa·s
278.15 K, 180700 kPa | 1.456 mPa·s
278.15 K, 210700 kPa | 1.476 mPa·s
278.15 K, 240400 kPa | 1.498 mPa·s
278.15 K, 270400 kPa | 1.522 mPa·s
278.15 K, 300600 kPa | 1.555 mPa·s
278.15 K, 330300 kPa | 1.591 mPa·s
278.15 K, 360000 kPa | 1.631 mPa·s
278.15 K, 389000 kPa | 1.672 mPa·s
283.15 K, 100 kPa | 1.313 mPa·s and 1.31 mPa·s
283.15 K, 500 kPa | 1.31 mPa·s
283.15 K, 30700 kPa | 1.28 mPa·s
283.15 K, 60700 kPa | 1.264 mPa·s
283.15 K, 90700 kPa | 1.257 mPa·s
283.15 K, 120800 kPa | 1.257 mPa·s
283.15 K, 150800 kPa | 1.263 mPa·s
283.15 K, 180800 kPa | 1.275 mPa·s
283.15 K, 210200 kPa | 1.293 mPa·s
283.15 K, 240600 kPa | 1.314 mPa·s
283.15 K, 270700 kPa | 1.337 mPa·s
283.15 K, 300200 kPa | 1.362 mPa·s
283.15 K, 330000 kPa | 1.39 mPa·s
283.15 K, 359200 kPa | 1.42 mPa·s
283.15 K, 385200 kPa | 1.45 mPa·s
298.15 K, 100 kPa | 0.892 mPa·s and 0.893 mPa·s
298.15 K, 31000 kPa | 0.888 mPa·s
298.15 K, 61000 kPa | 0.888 mPa·s
298.15 K, 90900 kPa | 0.891 mPa·s
298.15 K, 120700 kPa | 0.898 mPa·s
298.15 K, 150600 kPa | 0.907 mPa·s
298.15 K, 180600 kPa | 0.919 mPa·s
298.15 K, 210600 kPa | 0.933 mPa·s
298.15 K, 240600 kPa | 0.948 mPa·s
298.15 K, 270100 kPa | 0.965 mPa·s
298.15 K, 299700 kPa | 0.983 mPa·s
298.15 K, 329200 kPa | 1.002 mPa·s
298.15 K, 358500 kPa | 1.022 mPa·s
298.15 K, 384300 kPa | 1.042 mPa·s
